# According to PubChem BioAssay AID1918946 (Molecular Pharmacology Branch, DTP, NCI, 2023):
# “And” between values parts separate entries of the source, which are not always exact repeats. Identical values can stand only once.
# Tested on: 885512-296-R-J2-PDC complex spheroid viability
# Test: Anticancer human tumor 885512-296-R-J2-PDC patient-derived breast carcinoma cell line growth inhibition
# Conditions: for viability, T/C: stronger effect = lower value
# How it was run: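 Complex spheroids of tumor cells with HUVEC and human MSCs, exposed to iadademstat combined with other agents. Each agent tested in half-log steps from near clinical Cmax (else 10 microM top), DMSO ≤0.25%.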
# [1] = curve of first compound, second compound 0.1 µM
# [2] = curve of first compound, second compound 0.316 µM
# [3] = curve of first compound, second compound 1 µM
# [4] = curve of first compound, second compound 3.16 µM
# [5] = curve of first compound, second compound 10 µM
# 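Note: spheroids exposed to agents for 7 days before viability read.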
smiles,measurement,setting,value
Nc1ccccc1NC(=O)c1ccc(CNC(=O)OCc2cccnc2)cc1,"viability, T/C",compound 0.00949 µM,92.7% and 64.7%
same,"viability, T/C",compound 0.03 µM,63.2% and 46.1%
same,"viability, T/C",compound 0.0949 µM,44.3% and 33.1%
same,"viability, T/C",compound 0.3 µM,22.8% and 16.8%
same,"viability, T/C",compound 0.949 µM,12.9% and 6.76%
same,"viability, T/C",compound 3 µM,10.3% and 0.3%
same,IC50,curve of compound,0.062 µM and 0.0252 µM
CCc1c2c(nc3ccc(O)cc13)-c1cc3c(c(=O)n1C2)COC(=O)[C@]3(O)CC + NC1CC1c1ccc(-c2cccc(O)c2)cc1,IC50,[1],< 0.000949 µM
same,IC50,[2],< 0.000949 µM
same,IC50,[3],< 0.000949 µM
same,IC50,[4],< 0.000949 µM
same,IC50,[5],< 0.000949 µM
same,"viability, T/C","second compound 0.1 µM, first compound 0.000949 µM",1.84%
same,"viability, T/C","second compound 0.1 µM, first compound 0.003 µM",1.73%
same,"viability, T/C","second compound 0.1 µM, first compound 0.00949 µM",1.08%
same,"viability, T/C","second compound 0.1 µM, first compound 0.03 µM",1.22%
same,"viability, T/C","second compound 0.1 µM, first compound 0.0949 µM",1.37%
same,"viability, T/C","second compound 0.1 µM, first compound 0.3 µM",1.16%
same,"viability, T/C","second compound 0.316 µM, first compound 0.000949 µM",2.42%
same,"viability, T/C","second compound 0.316 µM, first compound 0.003 µM",1.57%
same,"viability, T/C","second compound 0.316 µM, first compound 0.00949 µM",1.3%
same,"viability, T/C","second compound 0.316 µM, first compound 0.03 µM",1.37%
same,"viability, T/C","second compound 0.316 µM, first compound 0.0949 µM",1.16%
same,"viability, T/C","second compound 0.316 µM, first compound 0.3 µM",1.05%
same,"viability, T/C","second compound 1 µM, first compound 0.000949 µM",1.79%
same,"viability, T/C","second compound 1 µM, first compound 0.003 µM",1.95%
same,"viability, T/C","second compound 1 µM, first compound 0.00949 µM",1.46%
same,"viability, T/C","second compound 1 µM, first compound 0.03 µM",1.26%
same,"viability, T/C","second compound 1 µM, first compound 0.0949 µM",1.14%
same,"viability, T/C","second compound 1 µM, first compound 0.3 µM",1.13%
same,"viability, T/C","second compound 3.16 µM, first compound 0.000949 µM",2.13%
same,"viability, T/C","second compound 3.16 µM, first compound 0.003 µM",1.76%
same,"viability, T/C","second compound 3.16 µM, first compound 0.00949 µM",1.07%
same,"viability, T/C","second compound 3.16 µM, first compound 0.03 µM",1.01%
same,"viability, T/C","second compound 3.16 µM, first compound 0.0949 µM",0.8%
same,"viability, T/C","second compound 3.16 µM, first compound 0.3 µM",0.78%
same,"viability, T/C","second compound 10 µM, first compound 0.000949 µM",2.37%
same,"viability, T/C","second compound 10 µM, first compound 0.003 µM",2.17%
same,"viability, T/C","second compound 10 µM, first compound 0.00949 µM",1.55%
same,"viability, T/C","second compound 10 µM, first compound 0.03 µM",0.87%
same,"viability, T/C","second compound 10 µM, first compound 0.0949 µM",0.91%
same,"viability, T/C","second compound 10 µM, first compound 0.3 µM",0.8%
O=C(c1cc(Cc2n[nH]c(=O)c3ccccc23)ccc1F)N1CCN(C(=O)C2CC2)CC1 + NC1CCC(NC2CC2c2ccccc2)CC1,IC50,[1],0.63 µM
same,IC50,[2],0.519 µM
same,IC50,[3],0.563 µM
same,IC50,[4],0.583 µM
same,IC50,[5],0.335 µM
same,"viability, T/C","second compound 0.1 µM, first compound 0.0316 µM",104%
same,"viability, T/C","second compound 0.1 µM, first compound 0.1 µM",113%
same,"viability, T/C","second compound 0.1 µM, first compound 0.316 µM",78.7%
same,"viability, T/C","second compound 0.1 µM, first compound 1 µM",31.2%
same,"viability, T/C","second compound 0.1 µM, first compound 3.16 µM",10.8%
same,"viability, T/C","second compound 0.1 µM, first compound 10 µM",12.9%
same,"viability, T/C","second compound 0.316 µM, first compound 0.0316 µM",111%
same,"viability, T/C","second compound 0.316 µM, first compound 0.1 µM",98.2%
same,"viability, T/C","second compound 0.316 µM, first compound 0.316 µM",72.1%
same,"viability, T/C","second compound 0.316 µM, first compound 1 µM",21.8%
same,"viability, T/C","second compound 0.316 µM, first compound 3.16 µM",8.68%
same,"viability, T/C","second compound 0.316 µM, first compound 10 µM",10.8%
same,"viability, T/C","second compound 1 µM, first compound 0.0316 µM",84.7%
same,"viability, T/C","second compound 1 µM, first compound 0.1 µM",101%
same,"viability, T/C","second compound 1 µM, first compound 0.316 µM",67.5%
same,"viability, T/C","second compound 1 µM, first compound 1 µM",30.7%
same,"viability, T/C","second compound 1 µM, first compound 3.16 µM",10.9%
same,"viability, T/C","second compound 1 µM, first compound 10 µM",7.07%
same,"viability, T/C","second compound 3.16 µM, first compound 0.0316 µM",100%
same,"viability, T/C","second compound 3.16 µM, first compound 0.1 µM",98.8%
same,"viability, T/C","second compound 3.16 µM, first compound 0.316 µM",75.5%
same,"viability, T/C","second compound 3.16 µM, first compound 1 µM",27.5%
same,"viability, T/C","second compound 3.16 µM, first compound 3.16 µM",7.3%
same,"viability, T/C","second compound 3.16 µM, first compound 10 µM",5.31%
same,"viability, T/C","second compound 10 µM, first compound 0.0316 µM",96.1%
same,"viability, T/C","second compound 10 µM, first compound 0.1 µM",74.6%
same,"viability, T/C","second compound 10 µM, first compound 0.316 µM",53.7%
same,"viability, T/C","second compound 10 µM, first compound 1 µM",26.1%
same,"viability, T/C","second compound 10 µM, first compound 3.16 µM",7.89%
same,"viability, T/C","second compound 10 µM, first compound 10 µM",3.97%
